For experiment [1], the system named is SVR (murine angiosarcoma) cells. Nature of the experiment: Proliferation study, SVR cells (Coulter Counter). To be noted: 10 μM, 24 h, cell count vs DMSO. It counts as cell-based. The source says: (§1) Different analogs of solenopsin were synthesized (FIG. 1) in order to explore their structure-activity relationships. The aliphatic side chains of S14 and S13 are 4 and 8 carbons longer compared to solenopsin, respectively. S11 has an 8-carbon longer side chain, as well as an extra methyl group in the 4-position of the piperidine ring. S15 has an 11-carbon side chain similar to solenopsin, but the first carbon in the side chain is hydroxylated. Also, S15 lacks the methyl group in the 2-position of the piperidine ring. All the analogs together with (−)- and (+)-solenosin A, and the isomeric mixture of the two cis-isomers of solenopsin (S12) were tested, at 10 μM, on two different human melanoma cell lines (A375 and A2058) and one murine angiosarcoma cell line (SVR) (FIG. 2). The A375 and A2058 melanoma cell lines express mutant Braf and the SVR murine angiosarcoma cell line expresses mutant Hras. One important difference between the two human melanoma cell lines is the A2058 is PTEN null, whereas A375 is not.
(§2) A375 (human melanoma), A2058 (human melanoma), or SVR (murine angiosarcoma) cells were plated at a concentration of 50,000 cells/well. The cells were treated with 10 μM of (−)-solenopsin A, (+)-solenopsin A, or analogs (S11-S15) for 24 hours, at which point cells were counted with a Coulter Counter.

For experiment [2], the system named is A2058 (human melanoma) cells. Briefly: Proliferation study, A2058 cells (Coulter Counter). It counts as cell-based. To be noted: 10 μM, 24 h, cell count vs DMSO.
Source text: as §1, §2

Experiment [3] has as its system A375 (human melanoma) cells. Nature of the experiment: Proliferation study, A375 cells (Coulter Counter). To be noted: 10 μM, 24 h, cell count vs DMSO. It counts as cell-based. How it is done: 50,000 cells/well were plated and treated for 24 h with each compound. The first DMSO bar in each chart serves as control for (+)-solenopsin A, (−)-solenopsin A, and ceramide C2. The second DMSO bar is the control for S11-S15.
as §1, §2

A further experiment concerns UM-SCC1A cells. Nature of the experiment: Oxygen consumption rate (Seahorse) in UM-SCC1A cells. It counts as cell-based, human. To be noted: 10 μM, 24 h. How it is done:
UM-SCC1A cells were plated 15,000/well and treated for 24 h with 10 μM of (+)-solenopsin A ((+) Sol. A), (−)-solenopsin A ((−) Sol. A), and solenopsin analogs S11-S15. Oxygen consumption rate (OCR) was measured as pmoles O2/minute using a Seahorse Biosciences instrument. Data shown are an average of three experiments±s.d.
At least not in Braf mutated cell lines, such as A375 and A2058. One possibility is that solenopsin, like ceramide, may also localize to mitochondria, and cause mitochondrial induced cell death. Cellular oxygen consumption rate can be indicative of mitochondrial function. Therefore, to investigate if solenopsin A and analogs do alter mitochondrial function, UM-SCC1A (human head and neck SCC) cells were then treated with 10 μM compound or the equivalent amount of DMSO and incubated for 24 hours. A SeaHorse Bioscience instrument was used to measure the oxygen consumption rate (OCR). […] Mitophagy can be one reason for decreased OCR, but further assays are needed to confirm the cause for the observed differences.
UM-SCC1A cells were plated 15,000 per well in 200 μl DMEM supplemented with 10% FBS and 1% penicillin-streptomycin in each well of a 96-well Seahorse plate and incubated overnight at 37° C. with 5% CO2. Cells were then treated with 10 μM compound or the equivalent amount of DMSO and incubated for 24 hours. OCR was measured as pmoles O2/minute using the Seahorse Biociences instrument per manufacturer's instructions. Protein amounts in each well were then quantified using the Thermo Scientific Pierce Protein Assay, per manufacturer's instructions.

In the next experiment the test system is A375 cells. Briefly: Superoxide (ROS) by DHE fluorescence, A375 cells. It counts as cell-based, human. To be noted: 10 μM, 24 h. How it is done:
Cells were treated for 24 h with 10 μM of (+)-solenopsin A ((+) Sol. A), (−)-solenopsin A ((−) Sol. A), and solenopsin analogs S11-S15. Cells were trypsined and incubated for 10 min in 10 μM dihydroethedium (DHE), followed by analysis with a FACScan flow cytometer. Data shown are an average of three experiments±s.d.
A375 or SVR cells were plated in 6 cm dishes. After cells had adhered to the plates, they were treated for 24 h with 10 μM DMSO solutions of (+)-solenopsin A, (−)-solenopsin A, or analogs (S11-S15) at which time the media was aspirated. Cells were washed with 2 mL PBS then treated with 0.05% trypsin/0.53 mM EDTA (Fisher) for 3 min at RT. Cells were collected and then pelleted at 600 g for 2 min. The supernatant was aspirated and the cells were suspended in 10 uM dihydroethidium (DHE) (Life Technologies) and incubated for 10 min in the dark at RT while shaking Following this incubation, cells were kept until counting on a Becton Dickinson FACScan flow cytometer. 10,000 cells were counted and analyzed by FlowJo 7.6.4. Mean values of DHE fluorescence intensity were compared.

Another experiment has as its system p-pMAPK 44/42. Nature of the experiment: Western blot p-pMAPK 44/42 in SVR cells. It counts as cell-based, murine. To be noted: 10 μM (ceramide C2 20 μM), 24 h. The procedure:
(§3) A375, SVR, and A2058 cells were treated for 24 h with ceramide C2 (20 μM), (+)-solenopsin A ((+) Sol. A, 10 μM), (−)-solenopsin A ((−) Sol. A, 10 μM), or solenopsin analogs S11-S15 (10 μM). The expression of p-AKT S473, p-pMAPK 44/42, and B-actin was determined by western blotting.
(§4) A375, SVR, and A2058 cells treated with solenopsin A and analogs were evaluated by Western-blotting with pAkt S473, p-pMAPK 44/42, and β-actin (FIG. 5). Although the proliferation results were more or less similar in all three cell lines, the protein expressions varied. In A375's an up-regulation of pAkt S473 and p-pMAPK 44/42 could be seen for (+)- and (−)-solenopsin A, as well as for analogs S12-S15 (FIG. 5). […] The results for cell line A2058 is similar to A375, i.e. there is an up-regulation of p-Akt S473 and p-pMAPK 44/42 in the treatment groups compared to the control. […] Both human melanoma cell lines (A375 and A2058) are reactive oxygen driven tumors, whereas the murine angiosarcoma cell line (SVR) is not. […]
(§5) Cells were grown in T-25 flasks until 80% confluent followed by treatment for 24 h with 10 μM DMSO solutions of (+)-solenopsin A, (−)-solenopsin A, or analogs (S11-S15). Sample aliquots normalized for protein quantities were size fractionated by 10% SDS-PAGE, and the proteins were transferred to a PVDF membrane. […]
In general terms: A western blot detects proteins with antibodies after separation by electrophoresis.

For the next experiment, the system named is p-Akt S473. Briefly: Western blot p-Akt S473 in SVR cells. It counts as cell-based, murine. To be noted: 10 μM (ceramide C2 20 μM), 24 h. The procedure:
as §3, §4, §5

Another experiment has as its system angiogenesis. To be noted: Arbiser et al., Blood 2007; cited from earlier work.
The subject of a further experiment is Pseudomonas aeruginosa. To be noted: Park et al. 2008; cited from earlier work.
The next experiment relates to phosphoinositol-3 kinase. To be noted: p53 deficient renal cell carcinoma cell line 786-O; Arbiser et al. 2007; cited from earlier work.
Experiment [4] addresses neuronal nitric oxide synthase (Homo sapiens, UniProt P29475). To be noted: Yi et al., Int J Toxicol 2003; cited from earlier work.
A further experiment has as its system PTEN. Nature of the experiment: Lipid raft fractionation (sucrose density gradient), PTEN translocation to membrane rafts in A375 cells. It counts as cell-based, human. To be noted: 50 μM (positive control), 1 h. How it is done: A375 cells were treated for 1 h with: ceramide C2 (50 μM), (+)-solenopsin A ((+) Sol. A, 20 μM), (−)-solenopsin A ((−) Sol. A, 20 μM), or solenopsin analogs S11-S15 (20 μM). Cells were lysed in 0.5% Brij96 in TNEV, loaded onto the 5-40% sucrose gradient, and centrifuged at 34,000 rpm at 4° C. for 22 h. Thirteen fractions were collected, starting from the top of the tube. Equal volumes of each fraction were analyzed by Western blotting with caveolin and PTEN antibodies. Caveolin serves a positive control for which fractions that contain lipid rafts.
Caveolin was used as a positive marker to identify lipid raft fractions and an anti-PTEN antibody was used to identify PTEN-containing fractions (FIG. 3). A375 cells were treated for 1 h with 20 μM of (+)-solenopsin, (−)-solenopsin, or analogs S11-S15. […]
Cells were grown in T-75 flasks until 80% confluent followed by treatment for 1 h with 20 μM DMSO solutions of (+)-solenopsin A, (−)-solenopsin A, analogs (S12-S15), or 50 μM of ceramide C2 in DMSO. […] Equal volumes of each fraction were analyzed by Western blot with relevant antibodies.
as §5

Entries after “also recorded” stand apart in the source; their conditions may differ.

Sequence of neuronal nitric oxide synthase (P29475 whole entry): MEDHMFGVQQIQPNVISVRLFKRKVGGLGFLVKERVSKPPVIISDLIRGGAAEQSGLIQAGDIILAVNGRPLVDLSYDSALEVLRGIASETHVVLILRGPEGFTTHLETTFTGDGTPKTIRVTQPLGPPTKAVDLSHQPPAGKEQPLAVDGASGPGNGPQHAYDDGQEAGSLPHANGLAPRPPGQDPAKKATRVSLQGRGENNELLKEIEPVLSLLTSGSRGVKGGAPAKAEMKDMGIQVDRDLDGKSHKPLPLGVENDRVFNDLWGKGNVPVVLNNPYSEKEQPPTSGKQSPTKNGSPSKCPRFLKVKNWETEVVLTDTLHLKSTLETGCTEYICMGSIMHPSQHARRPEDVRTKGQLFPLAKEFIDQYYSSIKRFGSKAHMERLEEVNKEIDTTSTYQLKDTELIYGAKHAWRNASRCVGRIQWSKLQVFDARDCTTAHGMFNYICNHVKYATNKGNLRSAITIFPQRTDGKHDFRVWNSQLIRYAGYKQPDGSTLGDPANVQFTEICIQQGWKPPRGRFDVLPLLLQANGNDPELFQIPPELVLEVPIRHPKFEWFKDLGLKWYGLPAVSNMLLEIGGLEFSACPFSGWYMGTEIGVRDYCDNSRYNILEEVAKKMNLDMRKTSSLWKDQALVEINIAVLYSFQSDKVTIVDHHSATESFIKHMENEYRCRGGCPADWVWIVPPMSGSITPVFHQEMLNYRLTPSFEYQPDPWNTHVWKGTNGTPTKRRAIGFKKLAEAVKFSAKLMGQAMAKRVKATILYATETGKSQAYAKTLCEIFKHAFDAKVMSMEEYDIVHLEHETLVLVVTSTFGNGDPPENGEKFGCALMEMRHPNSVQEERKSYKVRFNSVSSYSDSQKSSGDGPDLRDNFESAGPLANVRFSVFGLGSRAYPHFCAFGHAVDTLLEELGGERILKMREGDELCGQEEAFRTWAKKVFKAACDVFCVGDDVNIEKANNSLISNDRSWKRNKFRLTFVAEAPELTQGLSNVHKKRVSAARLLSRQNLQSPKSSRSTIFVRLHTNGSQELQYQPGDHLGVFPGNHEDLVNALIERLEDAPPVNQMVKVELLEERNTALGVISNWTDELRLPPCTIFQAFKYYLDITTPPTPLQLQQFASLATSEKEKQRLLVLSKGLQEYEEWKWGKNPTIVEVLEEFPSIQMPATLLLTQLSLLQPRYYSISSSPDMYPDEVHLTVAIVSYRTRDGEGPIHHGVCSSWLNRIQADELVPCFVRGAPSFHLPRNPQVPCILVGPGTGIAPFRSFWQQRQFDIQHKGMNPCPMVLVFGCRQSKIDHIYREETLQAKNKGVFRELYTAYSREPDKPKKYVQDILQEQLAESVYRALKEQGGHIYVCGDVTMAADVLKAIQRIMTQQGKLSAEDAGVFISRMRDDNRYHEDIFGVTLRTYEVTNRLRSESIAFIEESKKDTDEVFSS

`CCCCCCCCCCCCCCCCCCCC1CC(C)CC(C)N1` (centres unmarked) [Compound S11, 2,4-Dimethyl-6-nonadecylpiperidine]: the antiproliferative effect result in experiment [1], in [2] and in experiment [3] was “no significant antiproliferative effect” throughout. For the same compound, in the experiment with UM-SCC1A cells, the “oxygen consumption rate (OCR) compared to DMSO control” value is “little change compared to the control”. The “effect on superoxide levels (DHE fluorescence)” value in the experiment with A375 cells is recorded as “no effect on superoxide levels”.

With `CCCCCCCCCCCC1CCCC(C)N1` (centres unmarked) [Compound S12, 2-Methyl-6-undecylpiperidine], the antiproliferative effect result in experiment [1] is “anti-proliferative properties, although not as potent as solenopsin A itself; also recorded: clearly weaker than for the (−)- and (+)-solenopsin A”; in [2] it was “anti-proliferative properties, although not as potent as solenopsin A itself; also recorded: clearly weaker than for the (−)- and (+)-solenopsin A”; in [3], “anti-proliferative properties, although not as potent as solenopsin A itself; also recorded: clearly weaker than for the (−)- and (+)-solenopsin A”. The “oxygen consumption rate (OCR) compared to DMSO control” value with UM-SCC1A cells is reported as “drastically reduced OCR”.

On to `CCCCCCCCCCCCCCCC1CCCC(C)N1` (centres unmarked) [Compound S14, 2-Methyl-6-pentadecylpiperidine], for which the antiproliferative effect entry was “equally as effective as solenopsin A; also recorded: most potent analog” in experiment [1]; “equally as effective as solenopsin A; also recorded: approximately equally as potent as (−)- and (+)-solenopsin A” in [2]; “equally as effective as solenopsin A; also recorded: most potent analog” in experiment [3]. In the experiment on p-pMAPK 44/42, the “expression of p-pMAPK 44/42” value was “down-regulated”. Besides, the “oxygen consumption rate (OCR) compared to DMSO control” value in the experiment on UM-SCC1A cells was “drastically reduced OCR”. In addition, the “expression of p-Akt S473” value with p-Akt S473 was “down-regulated”.

`CCCCCCCCCCC(O)C1CCCCN1` (centres unmarked) [Compound S15, 1-(Piperidin-2-yl)undecan-1-ol]: the antiproliferative effect result in [1] is listed as “equally as effective as solenopsin A; also recorded: potent antiproliferative effect”; in [2], “equally as effective as solenopsin A; also recorded: potent antiproliferative effect; also recorded: most potent analog”; in [3] it was “equally as effective as solenopsin A; also recorded: potent antiproliferative effect”. In the experiment on p-pMAPK 44/42, the “expression of p-pMAPK 44/42” value is reported as “down-regulated”. The “oxygen consumption rate (OCR) compared to DMSO control” value in the experiment on UM-SCC1A cells is “drastically reduced OCR”. Besides, the “expression of p-Akt S473” value in the experiment with p-Akt S473 is reported as “down-regulated”.

Regarding `CCCCCCCCCCCC1CCCC(C)N1` (centres unmarked) [Solenopsin, 2-methyl-6-nundecylpiperidine], in the experiment with angiogenesis, the anti-angiogenic activity entry is “anti-angiogenic activity”. In addition, the “quorum sensing in Pseudomonas aeruginosa” value in the experiment with Pseudomonas aeruginosa was “blocks quorum sensing”. Moreover, the phosphoinositol-3 kinase result with phosphoinositol-3 kinase is on record as “downregulated phosphoinositol-3 kinase”.

Consider `CCCCCCCCCCCC1CCCC(C)N1` (centres unmarked) [isosolenopsin A, 2-methyl-6-nundecylpiperidine], for which the “inhibition of neuronal nitric oxide synthase” value in [4] was “potent and selective inhibitor”.

As to Ceramide, in the experiment with PTEN, the “amount of PTEN in the lipid raft fractions” value is reported as “higher amount of PTEN in the lipid raft fractions”.
